The record followed here is PMC9143004, “Antioxidant Properties and Aldehyde Reactivity of PD-L1 Targeted Aryl-Pyrazolone Anticancer Agents” (Molecules, 2022).

Series [1] deals with recombinant human PD-L1 (Homo sapiens, UniProt Q9NZQ7). Nature of the series: PD-L1 binding by microscale thermophoresis (MST). The following applies: for Kd: affinity for PD-L1 measured by MST.
Series [2] is described as follows: DMPO spin-trapping EPR assay under Fenton conditions in methanol. The conditions noted are these: DMPO 1 or 2 mM, •OCH3 radical. How it is done: In this case, we monitor the formation of an oxygen centered radical generated in the presence of the spin trapping agent DMPO under Fenton conditions (hydrogen peroxide plus ferrous ions). For practical reasons (compound solubility), experiments were carried out using methanol as a solvent and therefore, the methoxy radical is monitored. A typical six-line EPR signal is recorded, corresponding to the DMPO/^•OCH3 radical, with the characteristic hyperfine coupling constants aN = 13.9 G and aH = 8.3 G. Here again, we can measure the decay of the EPR signal in the presence of the different antioxidant compounds and compare their relative capacity to reduce the signal. Typical concentration-dependent response curves are presented in Figure 3a for compounds EDA, 2 and 4. All six compounds can induce a decrease of the EPR signal but with various degrees of efficacy (Figure 3b). Here again, the results were quantified through the measure of the area of the EPR signal as a function of the compound concentration, to allow the calculation of the reaction constants for each compound. […] Proper dose-response curves were constructed and fitted to determine the reaction rate constant (kr) for each compound, as shown in Figure 3c and the kr values are collated in Table 2.
(§1) CW-EPR experiments were performed with an X-band Bruker Elexsys E500 spectrometer (Bruker BioSpin GmbH, Rheinstetten, Germany) operating at 9.86 GHz. CW spectra were recorded at room temperature with a microwave power of 5.024–10.02 mW and a modulation amplitude of 1–2 G that assumes non-saturation conditions. The antioxidant activity was monitored using DPPH (1,1-diphenyl-2-picrylhydrazyl) at a final concentration of 100 µM as free radical scavenging molecule and DMPO (5,5-dimethyl-1-pyrroline N-oxide) as spin trap agent for the spin trapping experiments. The DMPO solution was freshly distillated prior to use at a final concentration of 1 mM or 2 mM. The solution mixture was filled into a glass capillary of 50 μL, which was in turn, placed in 4 mm quartz EPR tubes prior to analysis.
(§2) The percent inhibition of DPPH was calculated according to the following equation: I (%) = ((I0 − I)/I0) ∗ 100 where I0 is the area of the EPR spectrum of DPPH (control sample), and I is the area of the EPR spectrum of DPPH with antioxidant compound. The rate constant for the reaction of antioxidant compounds with ^•OCH3 is expressed by the following equation: 1/Ra = 1/Rf + (kr [AH]/(ka [DMPO] × Rf). Rf, and Ra indicate EPR signal area (double integration of EPR signal) of ^•OCH3, DMPO/^•OCH3, respectively. ka and [DMPO] are constants, and a plot of 1/Ra vs. [AH] (concentration of antioxidant compound) gives a straight line with 1/Rf as an intercept and kr/(ka[DMPO] Rf) as the slope. In these circumstances, the rate constant for the reaction of ^•OCH3 with antioxidant compounds (kr) can be expressed by the following equation: kr = (ka [DMPO] × slope)/interception.

A short description of series [3]: DPPH free radical scavenging EPR assay. The following applies: read-out: DPPH EC50 (concentration reducing the EPR signal by 50%); DPPH 100 μM; test compound 2–90 μM. As for the experimental part: The antioxidant activity of the compounds was characterized for their free radical scavenging activities using DPPH (100 μM), chosen as a model radical. In this case, we monitor the decay in the DPPH EPR signal intensity which occurs when EPR-silent diamagnetic hydrazine counterparts are formed from DPPH. The first line DPPH signal intensity is then recorded in the presence of increasing amount of the test compound (2–90 μM). Representative dose-dependent variations of the EPR signal are shown in Figure 2a, for compounds EDA, 2 and 4. They all show the characteristic five-line EPR spectrum of DPPH, due to the hyperfine coupling with two equivalent nitrogens, and for which the intensity is proportional to the DPPH concentration, and its decay in the presence of an antioxidant. […] From these curves, the intensity of the EPR signal can be measured and its decay quantified (Figure 2b).
For each compound, the percentage of inhibition of the EPR signal was plotted as a function of the compound concentration, and the fitted curves used to determine EC50 values. The same procedure has been used to evaluate various types of antioxidant compounds [29]. […] In this test, the compounds rank in the order EDA, 2, 3 > 5 > 1 > 4.
as §1, §2

Series [4] deals with PD-L1/PD-1 interaction (Homo sapiens, UniProt Q9NZQ7). As to the kind of experiment: Disruption of the PD-L1/PD-1 interaction in cells, FRET assay. It is filed as cell-based. The following applies: read-out: Bioactivity (IC50): capacity to disrupt the PD-L1/PD-1 interaction in cells.
PD-L1/PD-1 interaction, sequence (Q9NZQ7 19-290): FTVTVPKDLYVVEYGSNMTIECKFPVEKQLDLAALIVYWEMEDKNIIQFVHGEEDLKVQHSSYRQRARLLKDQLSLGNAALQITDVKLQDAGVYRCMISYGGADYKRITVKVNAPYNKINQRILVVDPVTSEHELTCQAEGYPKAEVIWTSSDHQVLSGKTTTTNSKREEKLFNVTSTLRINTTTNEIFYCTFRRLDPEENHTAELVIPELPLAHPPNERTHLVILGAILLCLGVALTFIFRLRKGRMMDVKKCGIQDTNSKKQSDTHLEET
Series [5] is described as follows: Solubility in the aqueous reaction medium. The following applies: methanol:ammonium formate buffer 5 mM pH 4.5 (40:60). It is filed as physicochemical. How it is done:
To begin with, each compound was incubated with an equimolar amount of 5fU for 180 min at 37 °C in a mixture of methanol and ammonium formate buffer 5 mM, pH 4.5 (40:60, v:v). […] In each case, the reaction mixture was introduced into the mass spectrometry equipment after a dilution in methanol to achieve a final concentration of 10 pmol/µL. The formation of drug-uracil adducts was monitored and unambiguously characterized by HRMS. […] There was no solubility issue with compound. The lack of reactivity is attributable to its adamantane unit which deactivates the adjacent reactive position or produces a steric hindrance. Otherwise, the other four compounds can react easily with 5fU to generate mono- and bis-adducts, as represented in Figure 4 with compound 2. In all cases, the observed molar mass and ring double bound value (RDB) value for the different species coincide perfectly with the expected mass (Δppm < 5 ppm) and RDB value (Table 3).

For series [6], the system named is CTLL-2 cells. As to the kind of experiment: Reactivation of proliferation of CTLL-2 cells. Format: cell-based. The following applies: read-out: Proliferation (IC50): capacity to reactivate proliferation of CTLL-2 cells.

Where “and” joins values, the source holds several entries; their conditions need not be identical. Equal entries are not always repeated. Where two headings read alike, the source gives them in different places.

recombinant human PD-L1, sequence (Q9NZQ7 19-290): as above

`CC1=NN(c2ccccc2)C(=O)C1` [EDA, 1-phenyl-3-methyl-5-pyrazolone, reference compound]: the “Activity toward PD-L1” value in series [1] (statement in the discussion) is “totally inactive”. Moreover, the “DMPO kr (reaction rate constant)” value in series [2] is on record as 2.59 10^11 M^−1 s^−1. Further, the EC50 in series [3] amounted to 35800 nM.

On to `O=C1CC(c2ccc(Cl)cc2)=NN1c1ccc(Cl)cc1Cl` [Compound 4], for which the IC50 in series [4] was determined as 3 ± 2 nM; in series [6] (Mus musculus, CTLL-2) it was 124 ± 7 nM. Further, the “Solubility in the aqueous medium” value in series [5] is “limited solubility”. The Kd – broadly, a measure of binding affinity in units of concentration – in series [1] came to 7 ± 3 nM. Further, the “DMPO kr (reaction rate constant)” value in series [2] was 1.04 10^11 M^−1 s^−1. For the same molecule, in series [3], the EC50 was 97000 nM and 97600 nM.

With “Nivolumab: reference listed in Table 1; the paper does not describe it further”, in series [6] (CTLL-2 cells), the IC50 was 58 ± 3 nM.

As to `COc1nc(OCc2cccc(-c3ccccc3)c2C)ccc1CNCCNC(C)=O` [BMS-202, reference compound], the IC50 in series [6] (CTLL-2 cells) stood at 53 ± 17 nM.

As to `O=C1CC(C23CC4CC(CC(C4)C2)C3)=NN1c1ccccc1Cl` [Compound 5], the IC50 was determined as 23 ± 6 nM in series [4] and 57 ± 9 nM in series [6] (Mus musculus, CTLL-2). The Kd in series [1] is 12 ± 2 nM. In addition, the “DMPO kr (reaction rate constant)” value in series [2] is 1.25 10^11 M^−1 s^−1. The EC50 in series [3] was found to be 59700 nM.

Regarding `COc1ccccc1C1=NN(c2ccc(Cl)cc2Cl)C(=O)C1` [Compound 3], the “DMPO kr (reaction rate constant)” value in series [2] was 1.88 10^11 M^−1 s^−1. Further, in series [3], the EC50 worked out at 34000 nM. Moreover, the IC50 in series [6] (Mus musculus, CTLL-2) worked out at 79 ± 7 nM.

Take `CC1=NN(c2ccccn2)C(=O)C1` [Compound 1]: the IC50 in series [4] came out at 92 ± 9 nM; in series [6] (Mus musculus, CTLL-2), 102 ± 8 nM. In addition, the Kd in series [1] worked out at 77 ± 7 nM. Moreover, the “DMPO kr (reaction rate constant)” value in series [2] was 1.27 10^11 M^−1 s^−1. Also, in series [3], the EC50 worked out at 70600 nM.

On to `CC1=NN(c2ccc(Cl)cc2Cl)C(=O)C1` [Compound 2], for which the IC50 came to 23 ± 3 nM in series [4] and 53 ± 11 nM in series [6] (Mus musculus, CTLL-2). In series [1], the Kd stood at 34 ± 3 nM. Besides, the “DMPO kr (reaction rate constant)” value in series [2] is reported as 1.93 10^11 M^−1 s^−1. The EC50 in series [3] came to 36500 nM.
